Key:
5-HT3 = target: T1, 5-HT3 (Homo sapiens, UniProt P46098); test: PDSP screening affinity 5-HT3; type: binding
T1 sequence (P46098 24-478): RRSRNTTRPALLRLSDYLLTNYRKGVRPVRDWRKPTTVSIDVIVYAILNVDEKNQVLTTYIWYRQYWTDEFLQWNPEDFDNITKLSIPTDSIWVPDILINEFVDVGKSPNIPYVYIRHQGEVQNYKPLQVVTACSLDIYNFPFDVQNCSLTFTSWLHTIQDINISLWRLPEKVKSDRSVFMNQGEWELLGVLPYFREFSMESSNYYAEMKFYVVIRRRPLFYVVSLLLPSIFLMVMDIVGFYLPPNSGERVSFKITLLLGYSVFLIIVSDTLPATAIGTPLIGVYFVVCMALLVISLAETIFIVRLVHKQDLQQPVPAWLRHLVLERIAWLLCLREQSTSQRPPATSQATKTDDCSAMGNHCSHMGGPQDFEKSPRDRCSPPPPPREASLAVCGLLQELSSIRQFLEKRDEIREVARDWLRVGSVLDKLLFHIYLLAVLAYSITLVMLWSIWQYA

5-ht1e = 5-ht1e (Homo sapiens, UniProt P28566); test: PDSP screening affinity 5-ht1e; type: binding
5-HT1D = 5-HT1D (Homo sapiens, UniProt P28221); test: PDSP screening affinity 5-HT1D; type: binding
r5-HT2C = target: T2, r5-HT2C (Rattus norvegicus, UniProt P08909); test: Ca2+ mobilization assay; type: cell-based; settings: for Emax: read-out: r5-HT2C Emax
T2 sequence (P08909 33-460): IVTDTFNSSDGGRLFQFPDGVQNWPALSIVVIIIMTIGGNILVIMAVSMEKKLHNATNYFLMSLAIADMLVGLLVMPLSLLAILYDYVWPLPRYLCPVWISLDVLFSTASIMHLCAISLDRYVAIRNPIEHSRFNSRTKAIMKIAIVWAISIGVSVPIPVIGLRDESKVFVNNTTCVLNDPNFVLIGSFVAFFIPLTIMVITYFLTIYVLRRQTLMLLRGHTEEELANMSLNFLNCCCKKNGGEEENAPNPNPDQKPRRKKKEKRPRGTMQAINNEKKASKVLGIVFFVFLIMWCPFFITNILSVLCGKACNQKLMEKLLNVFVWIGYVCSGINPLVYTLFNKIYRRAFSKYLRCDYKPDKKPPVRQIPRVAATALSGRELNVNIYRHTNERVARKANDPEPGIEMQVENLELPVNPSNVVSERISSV

5-HT2B = 5-HT2B (Homo sapiens, UniProt P41595); test: PDSP screening affinity 5-HT2B; type: binding
h5-HT2C = target: T3, h5-HT2C (Homo sapiens, UniProt P28335); test: Ca2+ mobilization assay; type: cell-based; settings: for Emax: HEK293, read-out: h5HT2C Emax; for EC50: h5HT2C EC50, Ca2+ mobilization
T3 sequence (P28335 33-458): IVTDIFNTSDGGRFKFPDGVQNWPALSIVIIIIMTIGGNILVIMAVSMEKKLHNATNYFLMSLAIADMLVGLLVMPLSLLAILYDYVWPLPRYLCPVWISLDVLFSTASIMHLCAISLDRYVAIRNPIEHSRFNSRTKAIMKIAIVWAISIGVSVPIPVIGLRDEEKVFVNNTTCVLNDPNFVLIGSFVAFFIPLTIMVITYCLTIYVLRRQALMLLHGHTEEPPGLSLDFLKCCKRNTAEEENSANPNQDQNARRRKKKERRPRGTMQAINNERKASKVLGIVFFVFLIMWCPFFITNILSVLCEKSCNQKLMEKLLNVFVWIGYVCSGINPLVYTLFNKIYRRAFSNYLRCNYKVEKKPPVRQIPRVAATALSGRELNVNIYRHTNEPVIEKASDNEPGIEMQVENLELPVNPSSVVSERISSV

human 5-HT2C receptor [1] = target: T4, human 5-HT2C receptor (Homo sapiens, UniProt P28335); test: h5-HT2C affinity, agonist radioligand [125I]DOI; type: binding
T4 sequence (P28335 33-458): T3 sequence (P28335 33-458)

5-HT7 = 5-HT7 (Homo sapiens, UniProt P34969); test: PDSP screening affinity 5-HT7; type: binding
5-HT6 = 5-HT6 (Homo sapiens, UniProt P50406); test: PDSP screening affinity 5-HT6; type: binding
5-HT1B = 5-HT1B (Homo sapiens, UniProt P28222); test: PDSP screening affinity 5-HT1B; type: binding; settings: 5-HT1B affinity
5-HT2A receptor [2] = target: T5, 5-HT2A receptor (Homo sapiens, UniProt P28223); test: h5-HT2A affinity, antagonist radioligand [3H]ketanserin; type: binding
5-HT2A receptor [3] = target: T5, 5-HT2A receptor; test: h5-HT2A affinity, agonist radioligand [125I]DOI; type: binding
5-HT1A = target: T6, 5-HT1A (Homo sapiens, UniProt P08908); test: PDSP screening affinity 5-HT1A; type: binding; settings: 5-HT1A affinity
T6 sequence (P08908 1-422): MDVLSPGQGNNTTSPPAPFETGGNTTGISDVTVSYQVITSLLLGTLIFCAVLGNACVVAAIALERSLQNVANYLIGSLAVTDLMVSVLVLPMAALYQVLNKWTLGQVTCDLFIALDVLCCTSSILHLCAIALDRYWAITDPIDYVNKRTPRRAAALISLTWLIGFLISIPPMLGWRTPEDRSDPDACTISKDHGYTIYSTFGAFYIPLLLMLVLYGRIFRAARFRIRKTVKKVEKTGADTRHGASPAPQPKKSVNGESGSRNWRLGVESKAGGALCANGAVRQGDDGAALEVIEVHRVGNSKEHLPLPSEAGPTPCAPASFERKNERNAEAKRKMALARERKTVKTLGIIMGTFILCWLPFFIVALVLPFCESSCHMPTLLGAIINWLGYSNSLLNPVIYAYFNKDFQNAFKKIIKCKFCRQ

h5-HT2B = h5-HT2B (Homo sapiens, UniProt P41595); test: Ca2+ mobilization assay; type: cell-based; settings: for Emax: HEK293, read-out: h5-HT2B Emax
Male C57BL/6J mice = test: Mouse head twitch response; settings: for max counts: HTR counts; for ED50: Mus musculus, sc, read-out: ED50 mg/kg (95% CI), mouse head twitch; for magnitude of peak effect × vehicle / maximally effective dose: mouse head twitch
5-ht5a = 5-ht5a (Homo sapiens, UniProt P47898); test: PDSP screening affinity 5-ht5a; type: binding; settings: 5-ht5a affinity
h5-HT2A = h5-HT2A (Homo sapiens, UniProt P28223); test: Ca2+ mobilization assay; type: cell-based; settings: for Emax: HEK293, read-out: h5-HT2A Emax, percentage of the maximum response to 5-HT
r5-HT2A = r5-HT2A (Rattus norvegicus, UniProt P14842); test: Ca2+ mobilization assay; type: cell-based; settings: for EC50: r5-HT2A EC50, Ca2+ mobilization; for Emax: read-out: r5-HT2A Emax, percentage of the maximum response to 5-HT
human 5-HT2C receptor [4] = target: T4, human 5-HT2C receptor; test: h5-HT2C affinity, antagonist radioligand [3H]mesulergine; type: binding
[5] = r5-HT2C EC50, Ca2+ mobilization

T5 sequence (P28223 whole entry): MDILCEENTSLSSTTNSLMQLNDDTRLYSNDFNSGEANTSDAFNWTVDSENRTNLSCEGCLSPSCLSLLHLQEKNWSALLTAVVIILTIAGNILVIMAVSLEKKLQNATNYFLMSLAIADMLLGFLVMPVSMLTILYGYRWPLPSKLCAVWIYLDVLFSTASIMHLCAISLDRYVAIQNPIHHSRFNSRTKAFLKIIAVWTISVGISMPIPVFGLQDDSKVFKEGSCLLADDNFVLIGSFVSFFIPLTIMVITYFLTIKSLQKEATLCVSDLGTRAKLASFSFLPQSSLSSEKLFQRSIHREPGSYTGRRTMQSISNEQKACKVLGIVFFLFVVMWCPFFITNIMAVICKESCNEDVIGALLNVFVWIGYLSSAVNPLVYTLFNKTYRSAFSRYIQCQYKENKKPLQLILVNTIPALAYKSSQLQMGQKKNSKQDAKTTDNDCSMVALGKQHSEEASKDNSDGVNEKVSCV
h5-HT2A, sequence (P28223 whole entry): as above
5-ht1e, sequence (P28566 whole entry): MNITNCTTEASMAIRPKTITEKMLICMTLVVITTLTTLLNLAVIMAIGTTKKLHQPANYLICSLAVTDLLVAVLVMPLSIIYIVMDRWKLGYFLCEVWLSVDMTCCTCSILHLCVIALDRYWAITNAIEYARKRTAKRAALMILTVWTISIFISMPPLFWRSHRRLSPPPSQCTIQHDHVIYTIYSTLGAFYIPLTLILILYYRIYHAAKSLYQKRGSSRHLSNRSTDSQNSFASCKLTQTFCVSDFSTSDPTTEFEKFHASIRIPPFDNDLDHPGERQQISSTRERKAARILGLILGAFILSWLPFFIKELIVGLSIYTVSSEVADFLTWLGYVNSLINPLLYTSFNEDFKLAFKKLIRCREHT
5-HT6, sequence (P50406 whole entry): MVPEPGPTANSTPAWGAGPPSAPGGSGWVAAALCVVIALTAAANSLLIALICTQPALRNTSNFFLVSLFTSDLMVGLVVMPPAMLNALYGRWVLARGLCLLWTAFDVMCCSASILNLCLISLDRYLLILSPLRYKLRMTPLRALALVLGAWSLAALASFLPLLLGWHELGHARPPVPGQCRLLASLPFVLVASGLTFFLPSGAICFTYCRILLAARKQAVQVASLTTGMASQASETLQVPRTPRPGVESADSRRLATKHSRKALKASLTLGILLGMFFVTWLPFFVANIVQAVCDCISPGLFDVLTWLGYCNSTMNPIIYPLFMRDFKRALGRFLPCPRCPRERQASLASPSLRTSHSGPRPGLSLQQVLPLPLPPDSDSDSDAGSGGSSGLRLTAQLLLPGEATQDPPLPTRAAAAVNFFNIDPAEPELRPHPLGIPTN
5-HT7, sequence (P34969 whole entry): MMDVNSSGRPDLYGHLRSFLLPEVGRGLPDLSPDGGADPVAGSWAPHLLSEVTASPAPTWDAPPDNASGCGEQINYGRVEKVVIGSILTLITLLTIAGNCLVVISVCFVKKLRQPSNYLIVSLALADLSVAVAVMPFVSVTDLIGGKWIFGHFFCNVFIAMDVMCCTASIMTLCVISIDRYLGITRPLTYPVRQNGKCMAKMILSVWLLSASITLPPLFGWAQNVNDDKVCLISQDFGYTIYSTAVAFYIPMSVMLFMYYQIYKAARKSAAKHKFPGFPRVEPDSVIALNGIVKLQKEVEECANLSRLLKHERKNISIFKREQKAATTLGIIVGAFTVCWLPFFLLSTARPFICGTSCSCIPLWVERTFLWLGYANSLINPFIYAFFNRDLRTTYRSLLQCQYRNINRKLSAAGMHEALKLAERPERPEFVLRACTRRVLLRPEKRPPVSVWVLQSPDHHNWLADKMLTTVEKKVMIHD
5-HT1D, sequence (P28221 whole entry): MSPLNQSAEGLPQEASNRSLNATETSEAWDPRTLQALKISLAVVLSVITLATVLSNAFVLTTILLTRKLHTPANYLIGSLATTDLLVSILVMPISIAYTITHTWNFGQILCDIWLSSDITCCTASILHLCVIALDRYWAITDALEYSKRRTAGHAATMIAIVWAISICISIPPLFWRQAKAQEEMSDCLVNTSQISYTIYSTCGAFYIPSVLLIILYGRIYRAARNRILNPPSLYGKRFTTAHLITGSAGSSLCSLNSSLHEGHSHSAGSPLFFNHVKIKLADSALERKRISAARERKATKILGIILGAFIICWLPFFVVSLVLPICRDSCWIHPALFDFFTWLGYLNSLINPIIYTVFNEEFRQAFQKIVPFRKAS
5-HT1B, sequence (P28222 whole entry): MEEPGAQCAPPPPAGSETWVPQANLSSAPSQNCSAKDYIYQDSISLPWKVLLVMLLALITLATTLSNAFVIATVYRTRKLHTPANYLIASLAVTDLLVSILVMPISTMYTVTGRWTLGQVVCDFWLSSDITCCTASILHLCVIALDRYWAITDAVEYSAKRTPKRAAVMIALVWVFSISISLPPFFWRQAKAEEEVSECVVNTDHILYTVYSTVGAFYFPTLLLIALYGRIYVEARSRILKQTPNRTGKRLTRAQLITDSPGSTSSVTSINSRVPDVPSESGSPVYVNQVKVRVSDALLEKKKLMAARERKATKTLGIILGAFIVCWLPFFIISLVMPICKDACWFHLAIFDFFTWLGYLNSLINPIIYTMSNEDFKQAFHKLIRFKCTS
r5-HT2A, sequence (P14842 whole entry): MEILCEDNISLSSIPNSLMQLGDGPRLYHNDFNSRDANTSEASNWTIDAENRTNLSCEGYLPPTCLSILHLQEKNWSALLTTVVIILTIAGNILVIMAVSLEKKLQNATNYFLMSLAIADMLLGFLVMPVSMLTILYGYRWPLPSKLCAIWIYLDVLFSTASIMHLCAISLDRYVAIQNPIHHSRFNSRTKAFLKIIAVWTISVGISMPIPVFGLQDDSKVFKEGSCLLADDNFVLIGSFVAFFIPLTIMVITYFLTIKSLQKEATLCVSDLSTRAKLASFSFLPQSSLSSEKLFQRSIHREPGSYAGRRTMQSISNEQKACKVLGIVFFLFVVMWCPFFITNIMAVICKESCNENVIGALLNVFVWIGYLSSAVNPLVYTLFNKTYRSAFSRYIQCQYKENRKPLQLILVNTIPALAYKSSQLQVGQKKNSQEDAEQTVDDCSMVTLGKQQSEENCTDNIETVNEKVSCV
5-ht5a, sequence (P47898 whole entry): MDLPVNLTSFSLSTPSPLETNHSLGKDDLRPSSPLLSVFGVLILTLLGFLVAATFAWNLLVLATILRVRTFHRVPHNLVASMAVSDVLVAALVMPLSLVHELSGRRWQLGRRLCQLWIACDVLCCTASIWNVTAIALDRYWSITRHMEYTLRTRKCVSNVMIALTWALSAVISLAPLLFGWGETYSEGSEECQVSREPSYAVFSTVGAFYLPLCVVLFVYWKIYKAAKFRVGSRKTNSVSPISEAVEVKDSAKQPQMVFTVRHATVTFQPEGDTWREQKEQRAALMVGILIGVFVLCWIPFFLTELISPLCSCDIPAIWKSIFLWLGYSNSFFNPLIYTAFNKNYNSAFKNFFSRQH
5-HT2B, sequence (P41595 whole entry): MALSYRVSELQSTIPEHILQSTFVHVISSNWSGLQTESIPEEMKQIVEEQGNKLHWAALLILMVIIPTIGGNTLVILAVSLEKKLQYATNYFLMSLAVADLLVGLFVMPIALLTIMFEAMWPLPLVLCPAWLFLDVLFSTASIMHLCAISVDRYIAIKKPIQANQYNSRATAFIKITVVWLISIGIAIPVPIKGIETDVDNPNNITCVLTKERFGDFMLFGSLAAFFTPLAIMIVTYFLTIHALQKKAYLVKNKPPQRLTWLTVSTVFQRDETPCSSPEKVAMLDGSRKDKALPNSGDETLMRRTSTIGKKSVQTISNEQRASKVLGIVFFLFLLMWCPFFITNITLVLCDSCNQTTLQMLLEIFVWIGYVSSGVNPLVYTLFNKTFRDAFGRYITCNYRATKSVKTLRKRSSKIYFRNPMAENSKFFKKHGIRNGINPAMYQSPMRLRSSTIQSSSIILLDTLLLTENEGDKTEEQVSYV
h5-HT2B, sequence (P41595 whole entry): as above

## COc1ccc2[nH]cc(CCNCc3cccc(Br)c3)c2c1 [Compound 5e, N-(3-Bromobenzyl)-2-(5-methoxy-1H-indol-3-yl)ethan-1-amine]
5-HT3
  Ki: > 10 µM
5-ht1e
  Ki: > 10 µM
5-HT1D
  Ki: 381 nM
r5-HT2C; [5]
  EC50: 422 nM
r5-HT2C; r5-HT2C pEC50 ± SEM, Ca2+ mobilization
  EC50: 417 nM
r5-HT2C
  Emax: 112 ± 3%
5-HT2B; 5-HT2B affinity
  Ki: 3.6 nM
5-HT2B; 5-HT2B pKi ± SEM
  Ki: 3.55 nM
h5-HT2C
  Emax: 64 ± 8%
  EC50: 321 nM
Human 5-HT2C receptor [1]
  Ki: 5.62 nM
5-HT7; 5-HT7 affinity
  Ki: 116 nM
5-HT7; 5-HT7 pKi ± SEM
  Ki: 117 nM
5-HT6; 5-HT6 affinity
  Ki: 45 nM
5-HT6; 5-HT6 pKi ± SEM
  Ki: 45.7 nM
5-HT1B
  Ki: 6.43 µM
5-HT2A receptor [2]
  Ki: 6.76 nM
5-HT2A receptor [3]
  Ki: 1.48 nM
5-HT1A
  Ki: 155 nM
h5-HT2B
  Emax: 20 ± 2%
h5-HT2B; h5-HT2B EC50, Ca2+ mobilization
  EC50: 29 nM
Male C57BL/6J mice; SC
  max counts: 14.2
  magnitude of peak effect × vehicle: 4.4 × vehicle
  maximally effective dose: 30 mg/kg
Male C57BL/6J mice
  ED50: 5.18 mg/kg
Male C57BL/6J mice; SC, doses up to 30 mg/kg
  activity in the HTR assay (active / inactive): active
5-ht5a
  Ki: 612 nM
h5-HT2A
  EC50: 13 nM
  Emax: 73.8 ± 1.1%
r5-HT2A
  EC50: 130 nM
  Emax: 65.5 ± 0.8%

## COc1ccc2[nH]cc(CCNCc3cccc(F)c3)c2c1 [Compound 5g, N-(3-Fluorobenzyl)-2-(5-methoxy-1H-indol-3-yl)ethan-1-amine]
5-HT3
  Ki: > 10 µM
5-ht1e
  Ki: > 10 µM
5-HT1D
  Ki: 319 nM
r5-HT2C; [5]
  EC50: 46 nM
r5-HT2C
  Emax: 100 ± 3%
5-HT2B; 5-HT2B pKi ± SEM
  Ki: 21.9 nM
h5-HT2C
  Emax: 83 ± 5%
  EC50: 192 nM
Human 5-HT2C receptor [1]
  Ki: 8.71 nM
5-HT7; 5-HT7 affinity
  Ki: 242 nM
5-HT6; 5-HT6 affinity
  Ki: 59 nM
5-HT1B
  Ki: 2.67 µM
5-HT2A receptor [2]
  Ki: 21.4 nM
5-HT1A
  Ki: 295 nM
Human 5-HT2C receptor [4]
  Ki: 47.9 nM
h5-HT2B
  Emax: 37 ± 1%
h5-HT2B; h5-HT2B pEC50 ± SEM, Ca2+ mobilization, NA = not active, Emax ≤ 15%
  EC50: 38 nM
Male C57BL/6J mice; SC
  max counts: 14.5
  magnitude of peak effect × vehicle: 7.3 × vehicle
  maximally effective dose: 10 mg/kg
Male C57BL/6J mice
  ED50: 3.33 mg/kg
5-ht5a
  Ki: 2450 nM
h5-HT2A
  EC50: 10 nM
  Emax: 89.3 ± 1.1%
r5-HT2A
  EC50: 80 nM
  Emax: 69.1 ± 1.3%

## COc1ccc2[nH]cc(CCNCc3cccc(SC)c3)c2c1 [Compound 5l, N-(3-Methylthiobenzyl)-2-(5-methoxy-1H-indol-3-yl)ethan-1-amine]
5-HT3
  Ki: > 10 µM
5-ht1e
  Ki: > 10 µM
5-HT1D
  Ki: 659 nM
r5-HT2C; [5]
  EC50: 205 nM
r5-HT2C
  Emax: 101 ± 2%
5-HT2B; 5-HT2B pKi ± SEM
  Ki: 4.07 nM
h5-HT2C
  Emax: 60 ± 4%
  EC50: 283 nM
Human 5-HT2C receptor [1]
  Ki: 2.09 nM
5-HT7; 5-HT7 affinity
  Ki: 136 nM
5-HT6; 5-HT6 affinity
  Ki: 9.7 nM
5-HT1B
  Ki: > 10 µM
5-HT2A receptor [2]
  Ki: 8.91 nM
5-HT2A receptor [3]
  Ki: 3.09 nM
5-HT1A
  Ki: 127 nM
Human 5-HT2C receptor [4]
  Ki: 13.2 nM
5-ht5a
  Ki: 841 nM
h5-HT2A
  EC50: 32 nM
  Emax: 46.9 ± 0.8%
r5-HT2A
  EC50: 120 nM
  Emax: 32 ± 0.7%
